Assay results published in patent US20150217046A1, “DOSING REGIMENS FOR SUBCUTANEOUSLY INFUSIBLE ACIDIC COMPOSITIONS” (SynAgile Corporation, priority 2012, published 2015).
Where two headings read alike, the source gives them in different places.

Key:
[1] = initially about pH 3.7±0.2
Experimental: Such a pH can be maintained for example through co-dissolving citric acid and/or a citrate salt, e.g., monosodium citrate, for example to about 10-50 mM concentration. For infusion it is desired, in order to avoid acid-caused pain, to raise the pH at least to pH 2.4±0.3, for example to 2.4±0.3, 2.6±0.3, 2.8±0.3, 3.1±0.3, 3.4±0.3, 3.7±0.3 or to 4.0±0.3, for example by adding citric acid, monosodium citrate, or trisodium citrate.

[2] = 0.44 M LDEE.HCl, pH 3.7±0.1, 4.0° C., 39 weeks, 3 samples
Experimental: The LD concentration was monitored in 3 samples of 0.44 M LDEE.HCl at pH 3.7±0.1 and 4.0° C.

[3] = Rate of hydrolysis of LD esters in solution; type: physicochemical; conditions: about pH 4.5, about 23° C.
Experimental: At a particular temperature and pH, the LDEs formed of LD and of different alcohols are hydrolyzed prior to their infusion at different rates. […] The rate of hydrolysis of LDE salts also depends on the anion, i.e., on the acid forming the LDE salt. LDE is hydrolyzed more rapidly when carboxylate anions and/or carboxylic acids replace the chloride anion or HCl. The rate of hydrolysis of the salt formed of LDEE and acetic acid can be about 3 times faster at about pH 4.5 at about 23° C. than that of LDEE.HCl, the salt formed of LDEE and HCl. The rate of hydrolysis at a particular pH and temperature can therefore depend on the buffering agent, e.g., citric acid and/or citrate anions, becoming faster when their concentration is elevated. Typically, the concentration of the buffering ions, i.e., the combined concentrations of citrates and citric acid, is between about 5 mM and 100 mM, for example between about 10 mM and 50 mM. The rate of hydrolysis can increase, for example, when the buffering citric acid-citrate concentration is increased.
In aqueous LDE salt pharmaceutical compositions, the hydrolysis rates generally decrease as the pH decreases, and the shelf life of the LDE salt consequently increases, unless the pH is about 1.7±0.5 or less. […] In acidic pharmaceutical compositions the amines of the LDEs are protonated, making the LDEs cations. […] The rates of hydrolysis generally increase with temperature, and may at least about double or about triple for each 10° C. increase, correspondingly decreasing upon cooling.

[4] = 25° C., pH 7 or pH 5; cited from earlier work
[5] = about 0.44 M LDEE.HCl infusible composition
[6] = about 1.0 M LDEE.HCl infusible composition
[7] = first infusion, continuous over 16 hours, 0.163 mL/hour, end of infusion

## CCOC(=O)[C@@H](N)Cc1ccc(O)c(O)c1.Cl [LDEE.HCl, hydrochloride salt of the ethyl ester of L-DOPA]
[1]; [5]
  Estimated operational life at 30° C.: >3 days
  Estimated operational life at 37° C.: >2 days
  Estimated storage life at 4° C.: >1.5 years
  Estimated storage life at 25° C.: >1 months
[1]; [6]
  Estimated operational life at 30° C.: >2 days
  Estimated operational life at 37° C.: >1 days
  Estimated storage life at 4° C.: >6 months
  Estimated storage life at 25° C.: >2 weeks
[2]
  concentration of LD after refrigerated storage: less than 2 mg/mL
0.48 M LDEE.HCl pH 3.5, 1.25 millimoles per infusion, all three infusions
  pain during infusion: no pain at any time during the infusions
[7]
  diameter of area with redder skin: 3 cm
  diameter of slightly protruding hard swelling: 2.5 cm
First infusion, continuous over 16 hours, after 21 hours
  diameter of palpable induration: 1 cm
First infusion, continuous over 16 hours, after 2 days
  diameter of induration: 0.5 cm
Second infusion, intermittent over 10.5 hours, 0.35 mL/hour, with oral carbidopa, end of infusion
  skin symptoms: no skin symptoms at the end of the infusion
Second infusion, intermittent over 10.5 hours, with oral carbidopa, after 11 hours
  skin symptoms: a barely perceptible very lightly pink 2.5 cm diameter zone and a very mild soft palpable swelling
Second infusion, intermittent over 10.5 hours, with oral carbidopa, after 36 hours
  skin symptoms: only a barely palpable 3 cm long 1 cm wide soft horizontal induration
Third infusion, intermittent over 10.8 hours, 0.35 mL/hour, without oral carbidopa, end of infusion
  skin symptoms: no significant skin symptoms at the end of the infusion
Third infusion, intermittent, without oral carbidopa, four hours after end of infusion
  skin symptoms: very slightly more pink over a 2.5 cm diameter zone and there was a small (2 cm×1 cm) barely palpable induration
Third infusion, intermittent, without oral carbidopa, fourteen hours after end of infusion
  skin symptoms: the site could be recognized by its pink color

## CC(=O)O.CCOC(=O)C(N)Cc1ccc(O)c(O)c1 (stereo not shown) [salt formed of LDEE and acetic acid]
[3]
  rate of hydrolysis relative to LDEE.HCl: about 3 times

## N[C@@H](Cc1ccc(O)c(O)c1)C(=O)O [levodopa]
[4]
  solubility: ≤ 5 g per liter
